Holding throughout (type): cell-based, human
Experiment [1] has as its system WNT target genes in IMR90-1 hiPSCs. Briefly: Microarray and qPCR gene expression of WNT target genes. As to conditions: for expression levels of WNT target genes by qPCR: 12, 24 and 72 h after treatment. As to the method:
IMR90-1 iPSCs were cultured in cardiac differentiation medium containing serum. On Day 3, cells were treated with 10 μM KY02111 or 0.1% DMSO for 0, 12, or 24 h. Non-treated cells (0 h), cells treated with KY02111 for 12 h (KY12hr) or 24 h (KY24hr), and cells treated with 0.1% DMSO for 12 h (DMSO12hr) or 24 h (DMSO24hr) were used for microarray analysis. Total RNA was prepared using the RNeasy Mini Kit (Qiagen), according to the manufacturer's instructions. Synthesis of cDNA, in vitro transcription and biotin labeling cRNA, and hybridization to the Human Gene 1.0 ST array (Affymetrix) were performed according to Affymetrix protocols. Hybridized arrays were scanned using an Affymetrix GeneChip Scanner. Data normalization and further analysis were performed with GeneSpring GX (Agilent Technologies). Proportions of treated cells expressing genes relative to control (KY02111/DMSO) were calculated for each time point. […] The microarray data have been submitted to the Gene Expression Omnibus (GEO) public database at NCBI (GEO accession number, GSE33622).
Total RNA was isolated with an RNeasy Mini Kit (QIAGEN). Genomic DNA was completely digested with DNase I (Invitrogen). Total RNA (0.5 μg) was subjected to cDNA synthesis using the SuperScript III Reverse Transcriptase (Invitrogen). qRT-PCR was performed in triplicate, using SYBER GREEN PCR Master Mix on a 7500 Real Time PCR System (Applied Biosystems). The cycling conditions were as follows: 10 min at 95° C.; 40 cycles, each consisting of 15 s at 95° C.; 1 min at 60° C. Total RNA from human adult heart tissue (BioChain) was used to evaluate the expression levels of cardiac marker genes for cardiomyocytes derived from hPSCs. All values were normalized with respect to GAPDH expression level and expressed relative to the corresponding values in human adult hearts (100%).
In general terms: Quantitative PCR measures a nucleic acid by following its amplification.

Experiment [2] deals with TCF promoter activity (canonical WNT signaling) in IMR90-1 hiPSCs. Briefly: TOPflash TCF reporter-luciferase assay in hiPSCs. The note with it: 10 μM, with 60 ng/ml Wnt3a or 3 μM BIO. As to the method:
(§1) For the TCF reporter assay, IMR90-1 hiPSCs were cultured in the serum-containing differentiation culture, as described above, and transfected with TOPFlash plasmid (Millipore 21-170) and pRL-SV40 plasmid (Renilla luciferase transfection control, Promega E1980) on Day 2, using FuGENE HD transfection Reagenet (Promega E2311). After 24 h, 10 μM KY02111, 10 μM XAV939, or 10 μM IWP-2 was added to the medium, along with either 60 ng ml^−1 of mouse Wnt3a (Wako 232-02421) or 3 μM BIO. After 48 h of transfection (Day 4), luciferase activities were measured using a Dual-Luciferase Reporter 1000 Assay System kit (Promega E1980) and a 2030 ARVO X3 plate reader (PerkinElmer). Luciferase activities were normalized to the luminescence of the transfection control, Rennila luciferase, according to the kit protocol. For experiments using HEK293 cells, the cells were cultured in 10% FBS DMEM medium, and transfected with TOPflash and pRL-SV40 plasmid, using FuGENE HD. After 24 h, the transfected cells were seeded onto 96-well plates (10,000 cells well^−1) in medium containing 10 μM KY02111, 10 μM XAV939, or 10 μM IWP-2, along with 3 μM BIO or 60 ng ml^−1 mouse Wnt3a. Luciferase activities were measured 48 h after transfection by the procedure described above.

For experiment [3], the system named is TCF promoter activity in HEK293 cells. In words: TOPflash TCF reporter assay in HEK293 cells. As to conditions: 10 μM. As to the method: as §1
A general note: In a reporter assay the amount or activity of a reporter protein is the signal.

The record followed here is US9587220B2, “Method for inducing cardiac differentiation of pluripotent stem cell” (Kyoto University, priority 2012, dated 2017).

Entries after “also recorded” stand apart in the source; their conditions may differ.

Consider `Cc1ccc2nc(NC(=O)CSc3nc4c(c(=O)n3-c3ccccc3)SCC4)sc2c1` [IWP-2, reference compound], for which the “expression levels of WNT target genes by qPCR” value (from here on “expression levels”) in experiment [1] is “suppressed”. Besides, in experiment [2], the “TCF promoter (luciferase) activity elevated by Wnt3a or BIO” value (from here on “TCF promoter … by Wnt3a or BIO”) is given as “didn't inhibit”.
Turning to `COc1ccc(CCC(=O)Nc2nc3ccc(Cl)cc3s2)cc1OC` [KY02111, 2-(3-(3,4-dimethoxyphenyl)propanamide)-6-chlorobenzothiazole], the “number of genes changed >25% at both 12 and 24 h (microarray)” value in experiment [1] (10 μM, versus DMSO) stood at 26 genes. The “expression levels” value in experiment [1] was “suppressed”. Besides, the “TCF promoter … by Wnt3a or BIO” value in experiment [2] is “clearly reduced luciferase activities; also recorded: inhibited”. For the same compound, the “TCF promoter activity by Wnt3a” value in experiment [3] (with 60 ng/ml Wnt3a) is given as “enhanced luciferase activity; also recorded: further augmented”. Moreover, the “TCF promoter activity by BIO” value in experiment [3] (with 3 μM BIO) is “cancelled WNT activation by BIO; also recorded: inhibited”.
With `Oc1nc(-c2ccc(C(F)(F)F)cc2)nc2c1CSCC2` [XAV939, reference compound], in experiment [1], the “expression levels” value was “suppressed”. For the same compound, the “TCF promoter … by Wnt3a or BIO” value in experiment [2] is “clearly reduced luciferase activities; also recorded: inhibited”.
